Among the data in patent US20080293785A1, “SUBSTITUTED BENZOTHIAZOLE KINASE INHIBITORS” (priority 2006, published 2008) are IC50 values, retold here.

The target of one assay is T1, CDK1:Cyclin-B (Homo sapiens, UniProt P06493).
T1 construct: purchased New England Biolabs, Beverly, Mass; 6020; host or cells: insect cells
The assay can be described thus: CDK1 Screening Assay. To be noted: 10 μM ATP, biotinylated histone-H1 peptide substrate, 33P-γ-ATP FlashPlate; read-out: Kinase IC50 CDK1. It is filed as biochemical. As to the method: (§1) A kinase reaction mixture was prepared containing 50 mM Tris.HCl pH=8, 10 mM MgCl2, 0.1 mM Na3PO4, 1 mM DTT, 10 μM ATP, 0.025 μM biotinylated histone-H1 peptide substrate and 0.2 μCuries per well ^33P-γ-ATP (2000-3000 Ci/mmol). 70 μL of the kinase reaction mixture was dispensed into the well of a streptavidin coated FlashPlate™ (Cat. # SMP103, NEN, Boston, Mass.). Then 1 μL of test compound stock in 100% DMSO was added to the wells resulting in a final concentration of 1% DMSO in the reaction well with a 100 μL final reaction well volume.
(§2) The CDK1:Cyclin-B protein was diluted in 50 mM Tris.HCl pH=8.0, 0.1% BSA at a concentration of 1 ng per μL and 30 μL (30 ng enzyme per test well) was added to each well to initiate the reaction. The reaction was incubated for one hour at 30° C. At the end of the one hour incubation, the reaction was terminated by aspirating the mixture from the plate and washing the wells twice with PBS containing 100 mM EDTA. The histone-H1 biotinylated peptide substrate became immobilized on the Flashplate™ and the incorporation of ^33P-γ-ATP was measured by reading the plate on a scintillation counter. Inhibition of the enzymatic activity of CDK1 was measured by observing a reduced amount of ^33P-γ-ATP incorporated into the immobilized peptide.
The CDK1 kinase used was isolated from insect cells expressing both the human CDK1 catalytic subunit and its positive regulatory subunit cyclin B (New England Biolabs, Beverly, Mass., Cat. # 6020).
(§3) An IC50 listed as >0.1, >1, >10 or >100 means no observed 50% inhibition at the indicated test concentration. […] ND means the compound was not tested in the assay specified.

Another assay has as its target T2, CDK2:Cyclin A (Homo sapiens, UniProt P24941).
T2 construct: purchased Upstate Biotech, Lake Placid, N.Y
The assay is described as follows: CDK2 Screening Assay. It is filed as biochemical. The following applies: 10 μM ATP, biotinylated histone-H1 peptide substrate, 33P-γ-ATP FlashPlate; read-out: Kinase IC50 CDK2. Here is the method:
as §1
as §2, with “CDK2:Cyclin A” for “CDK1:Cyclin-B”, “CDK2” for “CDK1”
The CDK2 kinase used was complexed with cyclin A and is commercially available (Upstate Biotech, Lake Placid, N.Y.).
as §3

Another assay addresses VEGF-R2 kinase domain (Rattus norvegicus, UniProt O08775). The assay can be described thus: VEGF-R2 Screening Assay. Type of assay: biochemical. To be noted: 10 μM ATP, biotinylated PLC1 peptide substrate, 33P-γ-ATP FlashPlate; read-out: Kinase IC50 VEGFR. Here is the method: A kinase reaction mixture was prepared containing 50 mM Tris.HCl pH=8, 10 mM MgCl2, 0.1 mM Na3PO4, 1 mM DTT, 10 μM ATP, 0.025 μM biotinylated peptide substrate and 0.8 μCuries per well ^33P-γ-ATP (2000-3000 Ci/mmol). 70 μL of the kinase reaction mixture was dispensed into the well of a streptavidin coated FlashPlate™ (Cat. # SMP103, NEN, Boston, Mass.). Then 1 μL of test compound stock in 100% DMSO was added to the wells resulting in a final concentration of 1% DMSO in the reaction well with a 100 μL final reaction well volume.
The soluble rat tyrosine kinase containing an N-terminal 6×HIS tag was diluted in 50 mM Tris.HCl pH=8.0, 0.1% BSA at a concentration of 5 ng per μL and 30 μL (150 ng enzyme per test well) was added to each well to initiate the reaction. The reaction was incubated for one hour at 30° C. At the end of the one hour incubation, the reaction was terminated by aspirating the reaction mixture from the plate and washing the wells twice with PBS containing 100 mM EDTA. The PLC1 biotinylated peptide substrate became immobilized on the Flashplate™ and the incorporation of ^33P-γ-ATP was measured by reading the plate on a scintillation counter. Inhibition of the enzymatic activity of the VEGF-R was measured by observing a reduced amount of ^33P-γ-ATP incorporated into the immobilized peptide.
The VEGF-R kinase assay was carried out using the CDK kinase assay procedure except that the enzyme was replaced with the VEGF-R2 fusion protein containing a polyhistidine tag at the N-terminus followed by amino acids 786-1343 of the rat VEGF-R2 kinase domain (GenBank Accession #U93306).
as §3

Assay [1] has as its system HeLa cervical adenocarcinoma. The assay can be described thus: Inhibition of cell proliferation (14C-thymidine incorporation), HeLa. It is filed as cell-based. Here is the method:
The ability of a test compound to inhibit the proliferation of cell growth was determined by measuring incorporation of ^14C-labelled thymidine into newly synthesized DNA within the cells. This method was used on American Type Culture Collection (ATCC, Virginia) cell lines derived from carcinomas originating from several tissues such as HeLa cervical adenocarcinoma (ATCC Cat. #CCL-2), A375 malignant melanoma (ATCC Cat. #CRL-1619) and HCT-116 colon carcinoma (ATCC Cat. #CCL-247).
The carcinoma cells were trypsinized and counted. The cells (3000-8000 count) were added to each well of a 96-well CytoStar tissue culture treated scintillating microplate (Amersham #RPNQ0160) in complete medium (100 μL) and the plate was incubated in complete medium for 24 hrs at 37° C. in an […] containing 5% CO2.
Test compound (1 μL) in 100% DMSO was added to the plate test-wells with DMSO only added to control-wells. The plate is incubated in complete medium for a second 24 hr period at 37° C. in an atmosphere containing 5% CO2.
An aliquot of a solution of Methyl ^14C-thymidine (56 mCi/mmol) (NEN #NEC568 or Amersham #CFA532) in complete medium (20 uL to provide […]) was also added to each well and the plate was incubated for a third 24 hr period at 37° C. in an atmosphere containing 5% CO2.
The plate contents were discarded and the plate was washed twice with PBS (200 μL), then PBS (200 μL) was added to each well. The plate was sealed and the degree of methyl ^14C-thymidine incorporation is quantified on a Packard Top Count.
An IC50 value shown as >10 or >100 means that 50% inhibition was not observed at the highest concentration.
In general terms: Uptake of a labelled nucleoside into DNA is a usual measure of proliferation.

Chain of VEGF-R2 kinase domain (O08775 786-1343): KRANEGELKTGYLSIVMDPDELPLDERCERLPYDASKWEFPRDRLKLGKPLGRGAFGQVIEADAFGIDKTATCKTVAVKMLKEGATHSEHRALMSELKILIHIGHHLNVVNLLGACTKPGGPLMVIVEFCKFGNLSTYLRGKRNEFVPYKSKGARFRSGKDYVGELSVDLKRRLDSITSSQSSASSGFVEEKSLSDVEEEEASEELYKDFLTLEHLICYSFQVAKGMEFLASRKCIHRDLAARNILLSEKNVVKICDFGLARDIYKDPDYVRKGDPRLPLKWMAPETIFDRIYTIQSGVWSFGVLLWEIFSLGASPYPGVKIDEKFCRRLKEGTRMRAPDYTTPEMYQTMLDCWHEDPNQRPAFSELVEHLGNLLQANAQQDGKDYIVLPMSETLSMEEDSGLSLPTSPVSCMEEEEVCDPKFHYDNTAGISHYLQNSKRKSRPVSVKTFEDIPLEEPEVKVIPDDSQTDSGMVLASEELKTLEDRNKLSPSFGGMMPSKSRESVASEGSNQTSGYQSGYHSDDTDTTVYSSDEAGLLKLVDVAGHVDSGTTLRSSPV
T1 sequence (P06493 whole entry): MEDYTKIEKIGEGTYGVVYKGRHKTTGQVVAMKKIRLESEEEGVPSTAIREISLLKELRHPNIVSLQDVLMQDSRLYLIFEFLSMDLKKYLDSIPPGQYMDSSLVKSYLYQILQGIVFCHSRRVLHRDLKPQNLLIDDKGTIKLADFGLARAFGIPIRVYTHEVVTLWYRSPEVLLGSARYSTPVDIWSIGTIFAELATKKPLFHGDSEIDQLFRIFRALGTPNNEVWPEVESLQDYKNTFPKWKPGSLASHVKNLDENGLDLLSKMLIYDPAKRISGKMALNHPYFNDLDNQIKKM
T1 sequence (P14635 whole entry partner): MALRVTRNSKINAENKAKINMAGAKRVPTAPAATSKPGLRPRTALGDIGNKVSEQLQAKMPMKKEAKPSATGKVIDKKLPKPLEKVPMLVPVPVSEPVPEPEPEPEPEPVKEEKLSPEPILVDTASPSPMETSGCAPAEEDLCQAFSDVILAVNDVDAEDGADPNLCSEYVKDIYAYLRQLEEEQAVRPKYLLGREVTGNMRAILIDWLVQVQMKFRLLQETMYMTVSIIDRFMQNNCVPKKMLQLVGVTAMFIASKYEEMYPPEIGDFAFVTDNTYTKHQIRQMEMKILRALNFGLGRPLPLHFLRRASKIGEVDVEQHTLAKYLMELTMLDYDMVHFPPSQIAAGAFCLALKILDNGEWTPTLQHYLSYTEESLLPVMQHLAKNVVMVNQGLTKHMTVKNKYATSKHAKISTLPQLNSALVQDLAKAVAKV

“1-(2,6-difluoro-phenyl)-3-(2-phenylamino-benzothiazol-7-yl)-urea [Cpd 1]”: the 50% inhibitory concentration (IC50) (usually the point on the concentration scale where inhibition reaches its midpoint) on CDK1:Cyclin-B was greater than 100 µM; on CDK2:Cyclin A it was greater than 100 µM; at VEGF-R2 kinase domain, roughly 100 µM; in assay [1], greater than 10 µM.

For the compound `O=C(Nc1cccc2sc(Nc3ccccc3)nc12)c1c(Cl)cc(Cl)cc1Cl` [Cpd 44, 2,4,6-trichloro-N-(2-phenylamino-benzothiazol-4-yl)-benzamide], the IC50 is 1.67 µM on CDK1:Cyclin-B, 0.31 µM on CDK2:Cyclin A and greater than 100 µM on VEGF-R2 kinase domain.

As for `O=C(Nc1cccc2sc(Nc3ccccc3)nc12)c1c(F)cc(F)cc1F` [Cpd 45, 2,4,6-trifluoro-N-(2-phenylamino-benzothiazol-4-yl)-benzamide], the IC50 on CDK1:Cyclin-B is greater than 10 µM; on CDK2:Cyclin A, 1.66 µM; at VEGF-R2 kinase domain, greater than 100 µM.

With `COc1cccc(OC)c1C(=O)Nc1cccc2sc(Nc3ccccc3)nc12` [Cpd 46, 2,6-dimethoxy-N-(2-phenylamino-benzothiazol-4-yl)-benzamide], the IC50 at CDK1:Cyclin-B is greater than 100 µM; at CDK2:Cyclin A it was 16.1 µM; on VEGF-R2 kinase domain it was greater than 100 µM.

As to `O=C(Nc1cccc2sc(Nc3ccccc3)nc12)c1c(Cl)cccc1Cl` [Cpd 47, 2,6-dichloro-N-(2-phenylamino-benzothiazol-4-yl)-benzamide], the half-inhibitory concentration (IC50) was 4.3 µM at CDK1:Cyclin-B, 0.611 µM at CDK2:Cyclin A and greater than 100 µM at VEGF-R2 kinase domain.

As for `Cc1ccc(F)c(C(=O)Nc2cccc3sc(Nc4ccc(N5CCN(C)CC5)cc4)nc23)c1F` [Cpd 49, 2,6-difluoro-3-methyl-N-{2-[4-(4-methyl-piperazin-1-yl)-phenylamino]-benzothiazol-4-yl}-benzamide], the figures for the half-maximal inhibitory concentration (IC50) at CDK1:Cyclin-B, on CDK2:Cyclin A and at VEGF-R2 kinase domain were 2.71 µM, 0.679 µM and no less than 100 µM, respectively.

For the compound `O=C(Nc1cccc2sc(Nc3ccccc3)nc12)c1cc2ccccc2s1` [Cpd 50, benzo[b]thiophene-2-carboxylic acid (2-phenylamino-benzothiazol-4-yl)-amide], the IC50 at CDK1:Cyclin-B, on CDK2:Cyclin A and at VEGF-R2 kinase domain was greater than 100 µM each time.

In the case of `O=C(Cc1ccccc1)Nc1cccc2sc(Nc3ccccc3)nc12` [Cpd 51, 2-phenyl-N-(2-phenylamino-benzothiazol-4-yl)-acetamide], the results for the IC50 at CDK1:Cyclin-B, on CDK2:Cyclin A and at VEGF-R2 kinase domain were greater than 100 µM, 1.19 µM and greater than 100 µM, respectively.

On to `O=C(Nc1cccc2sc(Nc3ccccc3)nc12)C1CCCC1` [Cpd 52, cyclopentanecarboxylic acid (2-phenylamino-benzothiazol-4-yl)-amide], for which the IC50 at CDK1:Cyclin-B was greater than 100 µM; at CDK2:Cyclin A it was 1.37 µM; at VEGF-R2 kinase domain it was greater than 100 µM.

Consider `O=C(Nc1cccc2sc(Nc3ccccc3)nc12)Oc1ccccc1` [Cpd 53, (2-phenylamino-benzothiazol-4-yl)-carbamic acid phenyl ester], for which the IC50 on CDK1:Cyclin-B, at CDK2:Cyclin A and on VEGF-R2 kinase domain was greater than 100 µM in each case.

Turning to `O=C(CCc1ccccc1)Nc1cccc2sc(Nc3ccccc3)nc12` [Cpd 54, 3-phenyl-N-(2-phenylamino-benzothiazol-4-yl)-propionamide], the IC50 at CDK1:Cyclin-B, at CDK2:Cyclin A and at VEGF-R2 kinase domain was greater than 100 µM each time.

As to `O=C(Nc1cccc2sc(Nc3ccccc3)nc12)C1CCCCCC1` [Cpd 55, cycloheptanecarboxylic acid (2-phenylamino-benzothiazol-4-yl)-amide], the concentration for half-maximal inhibition (IC50) at CDK1:Cyclin-B, at CDK2:Cyclin A and on VEGF-R2 kinase domain was greater than 100 µM throughout.

On to `Cc1nnsc1C(=O)Nc1cccc2sc(Nc3ccccc3)nc12` [Cpd 56, 4-methyl-[1,2,3]thiadiazole-5-carboxylic acid (2-phenylamino-benzothiazol-4-yl)-amide], for which the IC50 is greater than 100 µM at CDK1:Cyclin-B, greater than 10 µM at CDK2:Cyclin A and greater than 100 µM on VEGF-R2 kinase domain.

Turning to `CC(C)(C)C(=O)Nc1cccc2sc(Nc3ccccc3)nc12` [Cpd 57, 2,2-dimethyl-N-(2-phenylamino-benzothiazol-4-yl)-propionamide], the 50% inhibitory concentration (IC50) at CDK1:Cyclin-B was greater than 100 µM; at CDK2:Cyclin A, 13.3 µM; on VEGF-R2 kinase domain, greater than 100 µM.

Turning to `O=C(CC1CCCCC1)Nc1cccc2sc(Nc3ccccc3)nc12` [Cpd 58, 2-cyclohexyl-N-(2-phenylamino-benzothiazol-4-yl)-acetamide], the IC50 at CDK1:Cyclin-B, at CDK2:Cyclin A and on VEGF-R2 kinase domain was greater than 100 µM in each case.

As to `O=C(Nc1cccc2sc(Nc3ccccc3)nc12)c1cc2c(Cl)cc(Cl)cc2[nH]1` [Cpd 59, 4,6-dichloro-1H-indole-2-carboxylic acid (2-phenylamino-benzothiazol-4-yl)-amide], the half-inhibitory concentration (IC50) on CDK1:Cyclin-B, on CDK2:Cyclin A and on VEGF-R2 kinase domain was greater than 100 µM in each case.

For the compound `CC(C)(C)NC(=O)Nc1cccc2sc(Nc3ccccc3)nc12` [Cpd 60, 1-tert-butyl-3-(2-phenylamino-benzothiazol-4-yl)-urea], the IC50 on CDK1:Cyclin-B, at CDK2:Cyclin A and on VEGF-R2 kinase domain was greater than 100 µM each time.

On to `O=C(Nc1cccc2sc(Nc3ccccc3)nc12)NC1CCCCC1` [Cpd 61, 1-cyclohexyl-3-(2-phenylamino-benzothiazol-4-yl)-urea], for which the IC50 on CDK1:Cyclin-B, at CDK2:Cyclin A and at VEGF-R2 kinase domain was greater than 100 µM each time.

On to `Cc1ccc(F)c(C(=O)N(C)c2cccc3sc(Nc4ccccc4)nc23)c1F` [Cpd 62, 2,6-difluoro-3,N-dimethyl-N-(2-phenylamino-benzothiazol-4-yl)-benzamide], for which the IC50 on CDK1:Cyclin-B, on CDK2:Cyclin A and on VEGF-R2 kinase domain was greater than 100 µM throughout.
